Assay results from patent US20030040540A1, “Bromonitrothienyldioxanes” (priority 2001, published 2003).
≈ marks a conversion by molar mass, not a printed value.

Key:
[1] = system: Pseudomonas aeroginosa; experiment: MIC against bacteria on Landy agar (Use Example A); format: cell-based; conditions: 3 days at 28° C., 60 to 70% relative atmospheric humidity, no colonization whatsoever; for MIC: Pseudomonas, 72 h, read-out: Minimum inhibitory concentrations Pseudomonas aeroginosa
Procedure: (§1) The MIC was determined after 3 days of storage at 28° C. and 60 to 70% relative atmospheric humidity.

[2] = system: Chaetomium globusum; experiment: MIC against fungi on malt extract agar (Use Example B); format: cell-based; conditions: 2 weeks at 28° C., 60 to 70% relative atmospheric humidity, no colonization whatsoever; for MIC: Chaetomium, 336 h, read-out: Minimum inhibitory concentrations Chaetomium globusum
Procedure: (§2) The MIC was determined after 2 weeks of storage at 28° C. and 60 to 70% relative atmospheric humidity.

[3] = system: Aspergillus niger; experiment: as above; format: cell-based; conditions: 2 weeks at 28° C., 60 to 70% relative atmospheric humidity, no colonization whatsoever; for MIC: Aspergillus niger, 336 h, read-out: Minimum inhibitory concentrations Aspergillus niger
Procedure: as §2

[4] = system: Bacillus subtilis; experiment: MIC against bacteria on Landy agar (Use Example A); format: cell-based; conditions: 3 days at 28° C., 60 to 70% relative atmospheric humidity, no colonization whatsoever; for MIC: Bacillus subtilis, 72 h, read-out: Minimum inhibitory concentrations Bacillus subtilis
Procedure: as §1

[5] = system: Penicillium brevicaule; experiment: MIC against fungi on malt extract agar (Use Example B); format: cell-based; conditions: 2 weeks at 28° C., 60 to 70% relative atmospheric humidity, no colonization whatsoever; for MIC: Penicillium, 336 h, read-out: Minimum inhibitory concentrations Penicillium brevicaule
Procedure: as §2

MIC [1] | MIC [2] | MIC [3] | MIC [4] | MIC [5] | melting point | SMILES | Minimum inhibitory concentrations Chaetomium globusum [2] | Minimum inhibitory concentrations Penicillium brevicaule [5] | Minimum inhibitory concentrations Aspergillus niger [3] | Minimum inhibitory concentrations Pseudomonas aeroginosa [1] | Minimum inhibitory concentrations Bacillus subtilis [4]
750 µg/mL (≈ 3540 µM) | 500 µg/mL (≈ 2360 µM) | 1000 µg/mL (≈ 4720 µM) | – | – | – | O=[N+]([O-])C1(Br)COCOC1 [5-bromo-5-nitro-1,3-dioxane, reference compound] | – | – | – | – | –
100 µg/mL (≈ 340 µM) | 100 µg/mL (≈ 340 µM) | 200 µg/mL (≈ 680 µM) | < 40 µg/mL | < 40 µg/mL | – | O=[N+]([O-])C1(Br)COC(c2cccs2)OC1 (stereo not shown) [Example 1, 5-bromo-5-nitro-2-(2-thienyl)-1,3-dioxane] | – | – | – | – | –
100 µg/mL (≈ 304 µM) | < 40 µg/mL | 100 µg/mL (≈ 304 µM) | < 40 µg/mL | < 40 µg/mL | 55 to 57 °C | O=[N+]([O-])C1(Br)COC(c2ccc(Cl)s2)OC1 (stereo not shown) [Example 2, 5-bromo-2-(5-chloro-2-thienyl)-5-nitro-1,3-dioxane] | – | – | – | – | –
– | – | – | – | – | – | O=[N+]([O-])C1(Br)COC(c2ccc(Br)s2)OC1 (stereo not shown) [Example 3] | 100 ppm | <40 ppm | 200 ppm | – | –
– | – | – | – | – | – | Cc1ccc(C2OCC(Br)([N+](=O)[O-])CO2)s1 (stereo not shown) [Example 4] | 100 ppm | <40 ppm | 200 ppm | – | –
– | – | – | – | – | – | Cc1ccsc1C1OCC(Br)([N+](=O)[O-])CO1 (stereo not shown) [Example 5] | <40 ppm | <40 ppm | 200 ppm | – | –
– | – | – | – | – | – | O=[N+]([O-])c1ccc(C2OCC(Br)([N+](=O)[O-])CO2)s1 (stereo not shown) [Example 7] | 100 ppm | <40 ppm | 200 ppm | 200 ppm | <40 ppm
– | – | – | – | – | – | O=[N+]([O-])c1sc(C2OCC(Br)([N+](=O)[O-])CO2)cc1Br (stereo not shown) [Example 8] | 400 ppm | 200 ppm | >400 ppm | – | –
